Key:
[1] = tested on: E. coli; assay: Alleviation of 3-HP toxicity by adding downstream products of the chorismate superpathway; type: cell-based; conditions: added as supplement in the presence of 3-HP
Description: The data shown in FIG. 4 depict identification of the chorismate superpathway as a target of 3-HP toxicity. In some embodiments, toxicity is alleviated by several processes.

[2] = tested on: wild type E. coli K12; assay: 3-HP toxicity (growth inhibition) in E. coli; type: cell-based
Description: Previous attempts to produce 3-HP via biological pathways provide product titers which have been low and these processes have required the use of expensive, rich media. Both of these factors limit commercial feasibility and profitability. The use of rich media was necessary due to the toxicity of 3-HP when fermented with the more economical minimal media. […] Further, the fermentative pathways reported by other investigators have not addressed and resolved the toxicity mechanisms of 3-HP to the host organisms. Further to issues related to commodity chemical production, which largely relies on petroleum-based starting materials, there is an increasing need to reduce the domestic usage of petroleum and natural gas. The numerous motivating factors for this increasing need include, but are not limited to: pollutant reduction (such as greenhouse gases), environmental protection, and reducing the dependence on foreign oil. These issues not only impact fuel markets, but also the markets of numerous other products that are currently derived from oil. Biorefining promises the development of efficient biological processes allowing for the conversion of renewable sources of carbon and energy into large volume commodity chemicals.
FIG. 2 depicts 3-hydroxpropionate toxicity in E. coli K12. The minimum concentration of 3-HP that is required to inhibit visible growth after 24 hrs in minimal media is shown for wild type E. coli K12 grown in both minimal media and rich media which contains more complex nutrients.
Severe growth inhibition has been observed for extracellular 3-HP levels as low as 10 g/L in minimal media (pH 7.0), which limits the economic feasibility of 3-HP production as a platform chemical. […] However toxicity at levels below required titers (100 g/L) are still observed in rich media.

[3] = tested on: AB354 (ΔpanD) + pKK223; type: cell-based, E. coli; conditions: M9 minimal media plates with threonine, leucine, thiamine; 37 C overnight; 10 g/L beta-alanine, 1 mM IPTG, 0.2 g/L putrescine, 200 mg/L ampicillin where indicated
Description: (§1) E. coli AB354 (Δ panD) was transformed with the vector controls, pKK223, pKK223-Cterm-5×his (‘5×His’ disclosed as SEQ ID NO: 24), as well as the test vectors pKK223-mcr and pKK223-Cterm-5×His-kgd (‘5×His’ disclosed as SEQ ID NO: 24), according to standard methods described below. Each of the strains were grown overnight in LB rich media supplemented with 200 mg/L ampicillin (according to standard protocols). Following overnight growth, cells twice were harvested by centrifugation and washed by resuspension in M9 minimal media (standard protocol), diluted 1:10,000 and plated on M9 minimal media plates with 0.05 g/L threonine, 0.1 g/L leucine, 0.067 g/L thiamine, with the additional appropriate supplements, where indicated at the following concentrations (10 g/L beta-alanine (Sigma Aldrich, St. Louis, Mo.), 1 mM Isopropyl β-D-1-thiogalactopyranoside (Thermo Fisher Scientific, Fairlawn, N.J.), 0.2 g/L putrescine (MPBiomedicals, Santa Ana, Calif.), 200 mg/L ampicillin (Research Products International Corp., Mt. Prospect, Ill.) After plating, agarose plates were incubated at 37 C overnight by standard methods. […] A plus (+) indicates growth on a plate, minus (−) indicates no growth. […] Putrescine is known to induce the expression of gamma-aminobutyrate transaminase in E. coli. This enzyme has been shown in some species including Rattus norvegicus to also have beta-alanine aminotransferase activity.

[4] = tested on: AB354 (ΔpanD) + pKK223-kgd; type: cell-based, E. coli; conditions: M9 minimal media plates with threonine, leucine, thiamine; 37 C overnight; 10 g/L beta-alanine, 1 mM IPTG, 0.2 g/L putrescine, 200 mg/L ampicillin where indicated
Description: as §1

[5] = tested on: K12; type: cell-based, E. coli; conditions: M9 minimal media plates with threonine, leucine, thiamine; 37 C overnight; 10 g/L beta-alanine, 1 mM IPTG, 0.2 g/L putrescine, 200 mg/L ampicillin where indicated
Description: as §1

[6] = tested on: AB354 (ΔpanD); type: cell-based, E. coli; conditions: M9 minimal media plates with threonine, leucine, thiamine; 37 C overnight; 10 g/L beta-alanine, 1 mM IPTG, 0.2 g/L putrescine, 200 mg/L ampicillin where indicated
Description: as §1

[7] = tested on: AB354 (ΔpanD) + pKK223-mer; type: cell-based, E. coli; conditions: M9 minimal media plates with threonine, leucine, thiamine; 37 C overnight; 10 g/L beta-alanine, 1 mM IPTG, 0.2 g/L putrescine, 200 mg/L ampicillin where indicated
Description: as §1

For `O=C(O)c1cccc(O)c1O` [2,3-dihydroxybenzoate], the “effect of addition on 3-HP toxicity” value [1] was “alleviate toxicity to a degree”.

In the case of `O=C(O)CCO` [3-HP, 3-hydroxypropionate], the “extracellular 3-HP level at which severe growth inhibition is observed” value ([2]; minimal media (pH 7.0)) is reported as at least 10 g/L, the “3-HP level at which toxicity is still observed” value ([2]; rich media) is reported as under 100 g/L and the “product titer at which toxic effects are observed, relative to desired titers” value ([2]; rich media) is reported as “approximately two times lower than desired titers”. The “3-HP level at which metabolic activity is significantly inhibited, relative to the approximate 100 g/L titer” value ([2]; wild type E. coli, minimal media) was 5-10 times lower.

`CC1(C)S[C@@H]2[C@H](NC(=O)[C@H](N)c3ccccc3)C(=O)N2[C@H]1C(=O)O` [Amp, ampicillin] was tested, and the “growth on plate, strain AB354 (ΔpanD) + pKK223” value [3] was “−”, the “growth on plate, strain AB354 (ΔpanD) + pKK223-kgd” value [4] was “−” and the “growth on plate, strain K12” value [5] was “−”. The “growth on plate, strain AB354 (ΔpanD)” value [6] was “−” and the “growth on plate, strain AB354 (ΔpanD) + pKK223-mer” value [7] was “−”.

For `Nc1ccc(C(=O)O)cc1` [para-aminobenzoate], the “effect of addition on 3-HP toxicity” value [1] was “alleviate toxicity to a degree”.

In the case of `O=C(O)c1ccc(O)cc1` [para-hydroxy-benzoate], the “effect of addition on 3-HP toxicity” value [1] is reported as “alleviate toxicity to a degree”.

In the case of `N[C@@H](Cc1ccccc1)C(=O)O` [phenylalanine], the “effect of addition on 3-HP toxicity” value [1] is reported as “alleviate toxicity to a degree”.

For `N[C@@H](Cc1ccc(O)cc1)C(=O)O` [tyrosine], the “effect of addition on 3-HP toxicity” value [1] was “alleviate toxicity to a degree”.

With `NCCC(=O)O` [β-alanine, beta-alanine] the “growth on plate, strain AB354 (ΔpanD) + pKK223” value [3] was “+”, the “growth on plate, strain AB354 (ΔpanD) + pKK223-kgd” value [4] was “+” and the “growth on plate, strain K12” value [5] was “+”. The “growth on plate, strain AB354 (ΔpanD)” value [6] was “+” and the “growth on plate, strain AB354 (ΔpanD) + pKK223-mer” value [7] was “+”.
